Data from paper PMC6108835, “Target-Based Discovery of an Inhibitor of the Regulatory Phosphatase PPP1R15B” (Cell, 2018).

Key:
[1] = target: T1, R15B-PP1c holophosphatase (R15B^340-698-PP1c) (Homo sapiens, UniProt Q5SWA1); experiment: Holophosphatase SPR, compounds binding to reconstituted R15B-PP1c; settings: holophosphatase reconstituted on SA chip; 20°C; mean ± SD; read-out: KD, steady-state affinity for R15B-PP1c
T1 construct: cDNAs encoding amino acids 325-636 of R15A and 340-698 of R15B were cloned into pMAL-c5x; made in house; host or cells: R15B: E. coli BL21-Gold (DE3) pLysS; bio-PP1c: Sf9 insect cells (baculovirus)
T1 sequence (Q5SWA1 340-698): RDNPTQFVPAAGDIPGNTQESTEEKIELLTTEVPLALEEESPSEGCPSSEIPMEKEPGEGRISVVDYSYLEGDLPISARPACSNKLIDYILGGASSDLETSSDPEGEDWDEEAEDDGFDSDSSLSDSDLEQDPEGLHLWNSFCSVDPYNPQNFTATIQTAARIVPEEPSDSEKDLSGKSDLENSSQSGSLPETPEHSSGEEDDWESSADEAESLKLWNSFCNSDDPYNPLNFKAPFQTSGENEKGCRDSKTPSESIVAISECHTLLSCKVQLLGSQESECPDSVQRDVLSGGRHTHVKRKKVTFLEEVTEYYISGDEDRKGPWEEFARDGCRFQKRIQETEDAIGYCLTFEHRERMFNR
T1 sequence (P36873 1-322 partner limits assumed): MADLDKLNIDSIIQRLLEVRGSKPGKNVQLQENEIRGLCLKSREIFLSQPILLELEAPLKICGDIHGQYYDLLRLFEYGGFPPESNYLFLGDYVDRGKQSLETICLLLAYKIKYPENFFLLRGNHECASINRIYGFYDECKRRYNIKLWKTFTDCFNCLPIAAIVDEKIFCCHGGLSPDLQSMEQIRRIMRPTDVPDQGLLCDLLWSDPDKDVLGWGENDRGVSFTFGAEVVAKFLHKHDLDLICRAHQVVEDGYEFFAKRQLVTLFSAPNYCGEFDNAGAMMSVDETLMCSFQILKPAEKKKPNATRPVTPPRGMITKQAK
Method: (§1) Small molecules were stored as 50 mM stock solutions in 100% DMSO. […] If necessary the concentration range was adjusted to accurately determine the KD depending on the initial results. […] This was followed by 1 min stabilization period, to wash off any unspecific binding. […] After each dilution series, the surface was regenerated using 3 M NaCl for 90 s. […] In order to be able to correct for small variations in DMSO concentration between samples, eight solvent samples ranging from 0.06 to 8% DMSO were injected every 50th cycle. The flow cell temperature was 20°C.

[2] = test system: R15B-PP1c holophosphatase (R15B^340-698-PP1c); experiment: as above; set-up: species or system human; settings: ratio of SPR KD values
Method: as §1

R15A^325–636 = target: T2, R15A^325–636 (Homo sapiens, UniProt O75807); experiment: eIF2α pull down with MBP-tagged R15A; type: biochemical; settings: Raphin1 200 μM, P-eIF2α 1 μM
T2 construct: made in house; host or cells: E. coli BL21-Gold (DE3) pLysS
T2 sequence (O75807 325-636, stated change not applied): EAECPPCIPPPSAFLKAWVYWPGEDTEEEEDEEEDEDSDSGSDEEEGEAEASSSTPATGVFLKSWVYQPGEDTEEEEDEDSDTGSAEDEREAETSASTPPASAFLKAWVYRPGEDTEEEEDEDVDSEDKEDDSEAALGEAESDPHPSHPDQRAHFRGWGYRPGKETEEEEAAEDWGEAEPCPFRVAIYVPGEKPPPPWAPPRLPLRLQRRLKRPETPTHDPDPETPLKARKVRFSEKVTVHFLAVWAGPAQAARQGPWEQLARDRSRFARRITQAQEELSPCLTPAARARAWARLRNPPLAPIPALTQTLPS
Method: Recombinant eIF2α was produced as described in [Ito et al. (2004)] and pull down experiments were carried out as previously described ([Carrara et al., 2017]). Amylose beads (New England BioLabs) were pre-equilibrated with interaction buffer (50 mM Tris pH 7.4, 200 mM NaCl, 0.05% Tween20). 20 μL amylose beads were incubated with purified MBP-tagged R15s (200 nM), P-eIF2α (1 μM) as appropriate, plus 200 μM Raphin1, or DMSO vehicle in a total volume of 200 μL. Input samples (5%) was removed at this step, and added to 4% SDS-Laemmli sample buffer. Beads were incubated for 10 min at 4°C with 20 rpm gentle rotation. The beads were washed 5 × 1 mL with interaction buffer, transferred to a fresh tube and finally resuspended with 50 μL 4% SDS-Laemmli sample buffer. Eluded beads were boiled and then run on 4%–12% NuPAGE Bis-Tris gels (ThermoFisher Scientific). Anti-MBP HRP (New England BioLabs (#E8038); 1:5,000) (to probe for R15s) and anti-eIF2α (AbCam (#ab26197); 1:1,000) antibodies were used for immunoblotting analyses of samples.

PP1c [3] = target: T3, PP1c (Homo sapiens, UniProt P36873); experiment: PP1c catalytic activity assay (DiFMUP, EnzChek); settings: his-PP1c 30 nM
T3 sequence (P36873 1-322): as the sequence (P36873 1-322 partner limits assumed) above
Method: Residual activity of PP1c was measured using the EnzChek Phosphatase Assay Kit (ThermoFisher Scientific) according to the supplier’s instructions, with minor modifications.

PP1c [4] = target: T3, PP1c; experiment: SPR, compounds binding to PP1c alone immobilized on streptavidin chip; set-up: cDNA encoding for human PP1cγ (aa 1-322) was cloned into two baculovirus transfer vectors; made in house; host or cells: Sf9 insect cells (baculovirus); settings: PP1c immobilized on SA chip
Method: as §1

R15B-PP1c = target: T4, R15B-PP1c (Homo sapiens, UniProt Q5SWA1); experiment: Selective holophosphatase activity assay, eIF2α dephosphorylation by R15B-PP1c; type: biochemical; settings: Raphin1 100 μM, 30°C, 16 hr
T4 construct: cDNAs encoding amino acids 325-636 of R15A and 340-698 of R15B were cloned into pMAL-c5x; made in house; host or cells: E. coli (R15 and eIF2α: BL21-Gold (DE3) pLysS; PP1: BL21/pGro7)
T4 sequence (Q5SWA1 340-698): as the sequence (Q5SWA1 340-698) above
T4 sequence (P62136 7-330 partner limits assumed): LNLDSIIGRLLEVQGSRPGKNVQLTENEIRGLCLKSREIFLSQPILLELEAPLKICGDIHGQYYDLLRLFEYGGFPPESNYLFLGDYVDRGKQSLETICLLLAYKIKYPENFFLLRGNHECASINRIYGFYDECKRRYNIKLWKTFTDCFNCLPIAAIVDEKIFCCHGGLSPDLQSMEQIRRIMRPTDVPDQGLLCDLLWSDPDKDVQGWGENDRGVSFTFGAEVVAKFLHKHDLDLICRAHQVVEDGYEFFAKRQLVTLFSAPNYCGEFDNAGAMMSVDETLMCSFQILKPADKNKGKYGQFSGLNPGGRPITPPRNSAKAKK
Method: The assay was performed as previously described ([Carrara et al., 2017]). Dephosphorylation experiments were carried out in dephosphorylation buffer (50 mM Tris pH 7.4, 1.5 mM EGTA pH 8.0, 2 mM MnCl2), and all proteins were diluted to the appropriate concentration in dephosphorylation buffer. PP1c was diluted to 10 nM, R15s were diluted to 50 nM and P-eIF2α was diluted to 1 μM. Proteins were mixed as appropriate, and Raphin1 at 100 μM or DMSO vehicle control were added. Reactions were incubated at 30°C for 16 hr. 4% SDS-Laemmli sample buffer was added to stop the reactions. Samples were loaded on 4%–12% NuPAGE Bis-Tris gels (ThermoFisher Scientific), diluted 1-fold, and analyzed by immunoblotting using anti-Phospho-eIF2α (Ser51) (Cell Signaling (#9721); […]) and total anti-eIF2α (AbCam (#ab26197); 1:1,000) antibodies.

R15A = R15A (Homo sapiens, UniProt O75807); experiment: Limited trypsin digestion of R15A; set-up: cDNAs encoding amino acids 325-636 of R15A and 340-698 of R15B were cloned into pMAL-c5x; made in house; host or cells: E. coli BL21-Gold (DE3) pLysS; settings: R15 3 μM, compound 100 μM, trypsin 5 nM, 5 min, 22°C
Sequence of R15A (O75807 325-636, stated change not applied): as the sequence (O75807 325-636, stated change not applied) above
Method: Reactions were initiated by addition of 5 nM of trypsin from bovine pancreas (Sigma-Aldrich), made up in PBS, and allowed to proceed for 5 min at 22°C, with shaking at 350 rpm. […] Proteins were visualized by staining with InstantBlue Protein Stain (Expedeon).

wild-type mice = experiment: Morris water maze; type: in vivo, mouse; settings: 2 mg/kg for 2 weeks
Method: Morris water maze and the following fear conditioning were performed on C57BL/6J wild-type males aged 2.5 months. Mice were treatment- and test-naive before the treatment started. Treatment with Raphin1 started two weeks before and was continued during the behavioral tests.
The water maze consisted of a white circular tank (1.50 m diameter) filled with opaque water adjusted to 21 ± 1°C. For the hidden platform task, the escape platform (10 cm diameter) was positioned 1 cm below water surface in the center of one of the pool quadrants. The walls surrounding the water maze were hung with posters and flags, which served as visual cues and were visible during all stages of 5 trainings and testing. Movement of the mice within the pool was tracked and analyzed with a computerized tracking system (ViewPoint, France). During training mice were required to locate a submerged hidden platform by using only extra-maze cues. Each mouse received five blocks of training trials over five consecutive days. […] Spatial learning performance was assessed during a probe trial 1 hr after the last session of training, and for which the target platform was removed from the pool. To evaluate the performance during training trials the latency and distance traveled to find the hidden platform were measured. […]

Q: Which results are given for `[H]/N=C(\N)NN=Cc1cccc(Cl)c1Cl` [Raphin1, (E)-2-(2,3-dichlorobenzylidene)hydrazine-1-carboximidamide]?
A: Kd [1]: 33 ± 20 nM; Selectivity in binding R15B-PP1c over R15A-PP1c [2]: ~30 fold; Recruitment of eIF2α to R15A (R15A^325–636): no such effect; Inhibition of PP1c (dephosphorylation of difluoro-4-methylumbelliferyl phosphate) (PP1c [3]): did not inhibit; Binding to PP1c alone (in words) (PP1c [4]): did not bind; Dephosphorylation of eIF2α by R15B-PP1c (R15B-PP1c): inhibited; Protease sensitivity of R15A (limited proteolysis, conformational change) (R15A): no effect; Adverse effects on memory, Morris water maze (wild-type mice): no adverse effects
